Measurements: US20230134843A1, “TREATMENT OF STEM CELL DEFICIENCY” (OSPEDALE SAN RAFFAELE S.R.L., priority 2020, published 2023)

Tested on: CD45+ cells
Experiment: CD45+ inflammatory cell infiltration by immunohistochemistry, acute GVHD mouse model
Format: in vivo, mice
Conditions: Fosaprepitant 10 mg/mL topically six times a day, day 29
Protocol: 10-week-old male BALB/C and C57BL/6N mice (Charles River Laboratory, Lecco, Italy) were used for all the experiments (n=5/each group). All mice were free from ocular surface disease at baseline. The housing conditions were controlled (temperature 22° C., light from 07:00-19:00, humidity 50%-60%), and fresh food and water were freely available. The animals were monitored 3 times per week for 28 days post-transplantation for in vivo slit-lamp microscopy imaging, ocular surface score and systemic GVHD score (FIG. 11A). Carbon dioxide inhalation and subsequent cervical dislocation were applied to euthanize the animals. All the experiments were approved by the Animal Care and Use Committee of the IRCCS San Raffaele Scientific Institute, in accordance with the ARVO Statement for the Use of Animals in Ophthalmic and Vision Research.
Allogenic BMT was conducted using the C57BL/6N and BALB/c mice as transplant donors and recipients, respectively. The recipient mice received total body irradiation (TBI) (900 cGy divided in two fractions) from a Cs source 1 day before the transplantation. The donor C57BL/6N mice were sacrificed on dry ice and they femur and spleen were harvested. The bones were gently crushed manually using a sterile stick, and bone marrow (BM) cells were released by mixing the fragments of bones with RPMI. The suspension of BM cells was filtered to remove the impurities inside. The spleens were also gently crushed into a cell suspension and filtered. Inventors suspended the BM cells and splenic cells with RPMI and adjusted the density of cells to 1×10^6/[…] and 2×10^6/[…], respectively. […]
Mice were sacrificed 28 days after BM transplantation (Day 29 post irradiation) by carbon dioxide inhalation. […] Following three washes with PBS-T, sections were incubated in anti-goat HRP for 15 minutes and then detected with a goat-on-rodent HRP-Polymer Kit (Biocare Medical). Primary antibody labeling was detected using brown DAB substrate (Vector Laboratories, Burlingame, Calif., USA). […]

C[C@@H](O[C@H]1OCCN(Cc2nc(=O)n(P(=O)(O)O)[nH]2)[C@H]1c1ccc(F)cc1)c1cc(C(F)(F)F)cc(C(F)(F)F)c1 [Fosaprepitant, [3-{[(2R,3S)-2-[(1R)-1-[3,5-bis(trifluoromethyl)phenyl]ethoxy]-3-(4-fluorophenyl)morpholin-4-yl]methyl}-5-oxo-2H-1,2,4-triazol-1-yl]phosphonic acid]
CD45+ cell infiltration in the lacrimal gland (among all groups): no significant difference
CD45+ cell infiltration in the conjunctiva (p<0.0001): significantly reduced
CD45+ cell infiltration in the cornea (p<0.01): significantly reduced
